Laboratory results as given in ChEMBL document CHEMBL1158034, “Synthesis and cytotoxicity of racemic isodeoxypodophyllotoxin analogues with isoprene-derived side chains” (J Nat Prod, 2006).

Legend:
Type in all cases: functional, cell-based
KB = experiment: Cytotoxicity against human KB cells after 72 hrs by MTT assay
[1] = Cytotoxicity against human BEL-7404 cells after 72 hrs by MTT assay; settings: BEL-7404, 72 h
HL-60 = experiment: Cytotoxicity against human HL-60 cells after 72 hrs by MTT assay; settings: HL-60, 72 h
A549 = experiment: Cytotoxicity against human A549 cells after 72 hrs by MTT assay; settings: A549, 72 h

COc1cc2c(cc1OC)[C@H](c1ccc(OC)c(OC/C=C(\C)CC/C=C(\C)CCC=C(C)C)c1)[C@H]1C(=O)OC[C@@H]1C2 (racemic)
IC50 (KB): 3.76 µM
IC50 [1]: 5.63 µM

COC(=O)[C@H]1[C@H](CO)Cc2cc(OC)c(OC)c(OC)c2[C@@H]1c1ccc(OC/C=C(\C)CCC=C(C)C)c(OC)c1 (racemic)
IC50 (HL-60): 4.54 µM

COc1cc2c(cc1OC)[C@H](c1ccc(OCc3ccccc3)c(OC)c1)[C@H]1C(=O)OC[C@@H]1C2 (racemic)
IC50 (KB): 2.65 µM
IC50 [1]: 14.8 µM

COc1cc([C@@H]2c3cc4c(cc3[C@@H](O[C@@H]3O[C@@H]5CO[C@@H](C)O[C@H]5[C@H](O)[C@H]3O)[C@H]3COC(=O)[C@H]23)OCO4)cc(OC)c1O [ETOPOSIDE]
IC50 (HL-60): 10.5 µM

COC(=O)[C@H]1[C@H](CO)Cc2cc(OC)c(OC)c(OC)c2[C@@H]1c1ccc(O)c(OC)c1 (racemic)
IC50 (A549): 14.5 µM
